pKi: −log10 of the molar value.
Tests used:
D(2) dopamine receptor = D(2) dopamine receptor (Homo sapiens, UniProt P14416); assay: Displacement of [3H]spiperone from human dopamine D2S receptor expressed in HEK293 cells; assay type: cell-based
[1] = target: T1, Alpha-1A adrenergic receptor (Homo sapiens, UniProt P35348); assay: Displacement of [3H]prazosin from human adrenergic alpha1A receptor
T1 sequence (P35348 whole entry): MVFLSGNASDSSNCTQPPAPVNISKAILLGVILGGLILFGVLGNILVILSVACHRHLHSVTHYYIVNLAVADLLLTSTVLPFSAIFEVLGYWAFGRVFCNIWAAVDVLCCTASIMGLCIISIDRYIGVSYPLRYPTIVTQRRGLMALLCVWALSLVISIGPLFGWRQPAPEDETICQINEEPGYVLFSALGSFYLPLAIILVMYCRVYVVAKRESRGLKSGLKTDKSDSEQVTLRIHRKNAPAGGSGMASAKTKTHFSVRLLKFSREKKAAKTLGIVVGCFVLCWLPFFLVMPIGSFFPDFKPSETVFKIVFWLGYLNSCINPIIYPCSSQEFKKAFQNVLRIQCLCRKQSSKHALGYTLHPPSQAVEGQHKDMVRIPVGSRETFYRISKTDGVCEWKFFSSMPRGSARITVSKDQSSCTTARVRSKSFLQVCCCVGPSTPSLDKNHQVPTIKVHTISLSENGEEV

Homo sapiens [2] = species: Homo sapiens; assay: Selectivity ratio of Ki for human adrenergic alpha1A receptor to Ki for human dopamine D3 receptor
Homo sapiens [3] = species: Homo sapiens; assay: Selectivity ratio of Ki for human dopamine D2S receptor to Ki for human dopamine D3 receptor
Mus musculus = assay: Absolute bioavailability in mouse plasma at 10 mg/kg dose po and iv; assay type: ADME, organism-based; details: in vivo
Rattus norvegicus = assay: Absolute bioavailability in rat plasma at 10 mg/kg, po and 3 mg/kg, iv; assay type: ADME, organism-based; details: in vivo
D(3) dopamine receptor = D(3) dopamine receptor (Homo sapiens, UniProt P35462); assay: biochemical
D(3) dopamine receptor, sequence (P35462 whole entry): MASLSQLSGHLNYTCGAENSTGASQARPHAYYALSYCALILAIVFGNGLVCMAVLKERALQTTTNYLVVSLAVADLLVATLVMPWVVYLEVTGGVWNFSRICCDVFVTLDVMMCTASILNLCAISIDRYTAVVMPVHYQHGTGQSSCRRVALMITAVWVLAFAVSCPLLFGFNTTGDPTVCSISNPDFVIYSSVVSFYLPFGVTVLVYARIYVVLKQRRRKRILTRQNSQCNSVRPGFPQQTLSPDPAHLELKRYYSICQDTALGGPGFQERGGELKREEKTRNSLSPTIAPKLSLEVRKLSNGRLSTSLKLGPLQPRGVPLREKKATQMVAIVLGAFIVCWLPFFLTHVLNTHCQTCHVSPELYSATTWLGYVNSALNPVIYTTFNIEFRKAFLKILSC
Description: Displacement of [3H]spiperone from human dopamine D3 receptor expressed in CHO cells

D(2) dopamine receptor, sequence (P14416 whole entry): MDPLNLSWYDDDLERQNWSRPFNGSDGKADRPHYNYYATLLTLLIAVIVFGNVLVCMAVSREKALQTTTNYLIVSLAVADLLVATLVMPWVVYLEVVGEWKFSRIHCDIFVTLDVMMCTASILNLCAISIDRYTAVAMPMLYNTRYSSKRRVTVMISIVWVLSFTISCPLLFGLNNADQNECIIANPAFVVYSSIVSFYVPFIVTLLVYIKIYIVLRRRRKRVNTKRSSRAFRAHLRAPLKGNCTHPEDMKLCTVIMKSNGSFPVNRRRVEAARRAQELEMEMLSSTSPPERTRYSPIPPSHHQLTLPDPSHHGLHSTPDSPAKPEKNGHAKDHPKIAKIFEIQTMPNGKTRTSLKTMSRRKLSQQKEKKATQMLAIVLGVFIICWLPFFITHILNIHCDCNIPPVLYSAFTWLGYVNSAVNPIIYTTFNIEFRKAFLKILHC

## Clc1cccc(N2CCN(CCCCNc3cc(-c4ccccc4)ccn3)CC2)c1Cl
D(2) dopamine receptor
  pKi: 6.74
[1]
  pKi: 7.24
Homo sapiens [2]
  Ratio Ki: 106
Homo sapiens [3]
  Ratio Ki: 334

## FC(F)(F)c1cccc(N2CCN(CCCCNc3cc(-c4ccccc4)ccn3)CC2)c1
Mus musculus
  bioavailability: 0.4
D(2) dopamine receptor
  pKi: 6.71
[1]
  pKi: 6.92
Homo sapiens [2]
  Ratio Ki: 157
Rattus norvegicus
  bioavailability: 0.65
Homo sapiens [3]
  Ratio Ki: 256

## FC(F)(F)c1cccc(N2CCN(CCCCNc3ccccn3)CC2)c1
D(2) dopamine receptor
  pKi: 6.70
[1]
  pKi: 6.23
Homo sapiens [2]
  Ratio Ki: 35
D(3) dopamine receptor
  pKi: 7.77
Homo sapiens [3]
  Ratio Ki: 12

## Clc1cccc(N2CCN(CCCCNc3ccc(-c4ccccc4)cn3)CC2)c1Cl
D(2) dopamine receptor
  pKi: 7.39
[1]
  pKi: 7.68
Homo sapiens [2]
  Ratio Ki: 35
D(3) dopamine receptor
  pKi: 9.23
Homo sapiens [3]
  Ratio Ki: 69

## Cc1ccccc1N1CCN(CCCCNc2ccccn2)CC1
D(2) dopamine receptor
  pKi: 6.42
[1]
  pKi: 7.85
Homo sapiens [2]
  Ratio Ki: 0.4
D(3) dopamine receptor
  pKi: 7.49
Homo sapiens [3]
  Ratio Ki: 12

## Clc1cccc(N2CCN(CCCCNc3nccc4ccccc34)CC2)c1Cl
[1]
  pKi: 7.22

## FC(F)(F)c1cccc(N2CCN(CCCCNc3ncc(-c4ccccc4)o3)CC2)c1
D(2) dopamine receptor
  pKi: 5.63
[1]
  pKi: 6.57
Homo sapiens [2]
  Ratio Ki: 28
D(3) dopamine receptor
  pKi: 8.02
Homo sapiens [3]
  Ratio Ki: 242

## COc1ccccc1N1CCN(CCCCNc2nccc3ccccc23)CC1
D(2) dopamine receptor
  pKi: 7.15
[1]
  pKi: 8.22
Homo sapiens [2]
  Ratio Ki: 6.3
D(3) dopamine receptor
  pKi: 9.00
Homo sapiens [3]
  Ratio Ki: 70

## Cc1cccc(N2CCN(CCCCNc3ccccn3)CC2)c1C
D(2) dopamine receptor
  pKi: 6.68
[1]
  pKi: 7.40
Homo sapiens [2]
  Ratio Ki: 3
D(3) dopamine receptor
  pKi: 7.92
Homo sapiens [3]
  Ratio Ki: 17

## Fc1ccccc1N1CCN(CCCCNc2ccccn2)CC1
D(2) dopamine receptor
  pKi: 6.88
[1]
  pKi: 7.77
Homo sapiens [2]
  Ratio Ki: 1.5
D(3) dopamine receptor
  pKi: 7.96
Homo sapiens [3]
  Ratio Ki: 12

## FC(F)(F)c1cccc(N2CCN(CCCCNc3nc(-c4ccccc4)cs3)CC2)c1
D(2) dopamine receptor
  pKi: 5.61
[1]
  pKi: 7.14
Homo sapiens [2]
  Ratio Ki: 5.4
D(3) dopamine receptor
  pKi: 7.89
Homo sapiens [3]
  Ratio Ki: 183

## FC(F)(F)c1cccc(N2CCN(CCCCNc3ccc(-c4ccccc4)cn3)CC2)c1
D(2) dopamine receptor
  pKi: 6.84
[1]
  pKi: 6.64
Homo sapiens [2]
  Ratio Ki: 207
D(3) dopamine receptor
  pKi: 8.96
Homo sapiens [3]
  Ratio Ki: 130

## COc1ccccc1N1CCN(CCCCNc2ccc3ccccc3n2)CC1
[1]
  pKi: 8.22

## Clc1cccc(N2CCN(CCCCNc3ccc4ccccc4n3)CC2)c1Cl
D(2) dopamine receptor
  pKi: 7.64
[1]
  pKi: 7.34
Homo sapiens [2]
  Ratio Ki: 77
D(3) dopamine receptor
  pKi: 9.22
Homo sapiens [3]
  Ratio Ki: 39

## Fc1ccccc1N1CCN(CCCCNc2cc(-c3ccccc3)ccn2)CC1
D(2) dopamine receptor
  pKi: 6.51
[1]
  pKi: 8.05
Homo sapiens [2]
  Ratio Ki: 6
D(3) dopamine receptor
  pKi: 8.82
Homo sapiens [3]
  Ratio Ki: 206

## FC(F)(F)c1cccc(N2CCN(CCCCNc3nccc4ccccc34)CC2)c1
D(2) dopamine receptor
  pKi: 7.24
[1]
  pKi: 7.17
Homo sapiens [2]
  Ratio Ki: 68
D(3) dopamine receptor
  pKi: 9.00
Homo sapiens [3]
  Ratio Ki: 58

## Fc1ccccc1N1CCN(CCCCNc2ccc(-c3ccccc3)cn2)CC1
D(2) dopamine receptor
  pKi: 6.91
[1]
  pKi: 8.00
Homo sapiens [2]
  Ratio Ki: 4
D(3) dopamine receptor
  pKi: 8.60
Homo sapiens [3]
  Ratio Ki: 49

## FC(F)(F)c1cccc(N2CCN(CCCCNc3ccc4ccccc4n3)CC2)c1
D(2) dopamine receptor
  pKi: 7.28
[1]
  pKi: 7.92
Homo sapiens [2]
  Ratio Ki: 7.5
D(3) dopamine receptor
  pKi: 8.80
Homo sapiens [3]
  Ratio Ki: 33

## COc1ccccc1N1CCN(CCCCNc2ccccn2)CC1
D(2) dopamine receptor
  pKi: 6.70
[1]
  pKi: 7.64
Homo sapiens [2]
  Ratio Ki: 29
D(3) dopamine receptor
  pKi: 9.10
Homo sapiens [3]
  Ratio Ki: 247

## Clc1cccc(N2CCN(CCCCNc3ccccn3)CC2)c1Cl
[1]
  pKi: 7.48

— ChEMBL document CHEMBL1221353, “Synthesis and evaluation of amides surrogates of dopamine D3 receptor ligands” (Bioorg Med Chem Lett, 2010)
